{"source": "the kinase profiling compilation of Christmann-Franck et al. (2016)", "details_in_all_cases": "compound 10.0 µM", "key": {"[1]": {"target": "AAK1 (human) (UniProt Q2M2I8)"}, "[2]": {"target": "ADCK4 (human) (UniProt Q96D53)"}, "[3]": {"target": "ALK (human) (UniProt Q9UM73)"}, "[4]": {"target": "CLK1 (human) (UniProt P49759)"}, "[5]": {"target": "CSNK2A2 (human) (UniProt P19784)"}, "[6]": {"target": "EPHA1 (human) (UniProt P21709)"}, "[7]": {"target": "EPHA5 (human) (UniProt P54756)"}, "[8]": {"target": "ERBB2 (human) (UniProt P04626)"}, "[9]": {"target": "FGFR2 (human) (UniProt P21802)"}, "[10]": {"target": "FGR (human) (UniProt P09769)"}, "[11]": {"target": "IRAK1 (human) (UniProt P51617)"}, "[12]": {"test_system": "KIT (human), P10721 [V559D]"}, "[13]": {"target": "LRRK2 (human) (UniProt Q5S007)", "sequence (Q5S007 whole entry, looked up)": "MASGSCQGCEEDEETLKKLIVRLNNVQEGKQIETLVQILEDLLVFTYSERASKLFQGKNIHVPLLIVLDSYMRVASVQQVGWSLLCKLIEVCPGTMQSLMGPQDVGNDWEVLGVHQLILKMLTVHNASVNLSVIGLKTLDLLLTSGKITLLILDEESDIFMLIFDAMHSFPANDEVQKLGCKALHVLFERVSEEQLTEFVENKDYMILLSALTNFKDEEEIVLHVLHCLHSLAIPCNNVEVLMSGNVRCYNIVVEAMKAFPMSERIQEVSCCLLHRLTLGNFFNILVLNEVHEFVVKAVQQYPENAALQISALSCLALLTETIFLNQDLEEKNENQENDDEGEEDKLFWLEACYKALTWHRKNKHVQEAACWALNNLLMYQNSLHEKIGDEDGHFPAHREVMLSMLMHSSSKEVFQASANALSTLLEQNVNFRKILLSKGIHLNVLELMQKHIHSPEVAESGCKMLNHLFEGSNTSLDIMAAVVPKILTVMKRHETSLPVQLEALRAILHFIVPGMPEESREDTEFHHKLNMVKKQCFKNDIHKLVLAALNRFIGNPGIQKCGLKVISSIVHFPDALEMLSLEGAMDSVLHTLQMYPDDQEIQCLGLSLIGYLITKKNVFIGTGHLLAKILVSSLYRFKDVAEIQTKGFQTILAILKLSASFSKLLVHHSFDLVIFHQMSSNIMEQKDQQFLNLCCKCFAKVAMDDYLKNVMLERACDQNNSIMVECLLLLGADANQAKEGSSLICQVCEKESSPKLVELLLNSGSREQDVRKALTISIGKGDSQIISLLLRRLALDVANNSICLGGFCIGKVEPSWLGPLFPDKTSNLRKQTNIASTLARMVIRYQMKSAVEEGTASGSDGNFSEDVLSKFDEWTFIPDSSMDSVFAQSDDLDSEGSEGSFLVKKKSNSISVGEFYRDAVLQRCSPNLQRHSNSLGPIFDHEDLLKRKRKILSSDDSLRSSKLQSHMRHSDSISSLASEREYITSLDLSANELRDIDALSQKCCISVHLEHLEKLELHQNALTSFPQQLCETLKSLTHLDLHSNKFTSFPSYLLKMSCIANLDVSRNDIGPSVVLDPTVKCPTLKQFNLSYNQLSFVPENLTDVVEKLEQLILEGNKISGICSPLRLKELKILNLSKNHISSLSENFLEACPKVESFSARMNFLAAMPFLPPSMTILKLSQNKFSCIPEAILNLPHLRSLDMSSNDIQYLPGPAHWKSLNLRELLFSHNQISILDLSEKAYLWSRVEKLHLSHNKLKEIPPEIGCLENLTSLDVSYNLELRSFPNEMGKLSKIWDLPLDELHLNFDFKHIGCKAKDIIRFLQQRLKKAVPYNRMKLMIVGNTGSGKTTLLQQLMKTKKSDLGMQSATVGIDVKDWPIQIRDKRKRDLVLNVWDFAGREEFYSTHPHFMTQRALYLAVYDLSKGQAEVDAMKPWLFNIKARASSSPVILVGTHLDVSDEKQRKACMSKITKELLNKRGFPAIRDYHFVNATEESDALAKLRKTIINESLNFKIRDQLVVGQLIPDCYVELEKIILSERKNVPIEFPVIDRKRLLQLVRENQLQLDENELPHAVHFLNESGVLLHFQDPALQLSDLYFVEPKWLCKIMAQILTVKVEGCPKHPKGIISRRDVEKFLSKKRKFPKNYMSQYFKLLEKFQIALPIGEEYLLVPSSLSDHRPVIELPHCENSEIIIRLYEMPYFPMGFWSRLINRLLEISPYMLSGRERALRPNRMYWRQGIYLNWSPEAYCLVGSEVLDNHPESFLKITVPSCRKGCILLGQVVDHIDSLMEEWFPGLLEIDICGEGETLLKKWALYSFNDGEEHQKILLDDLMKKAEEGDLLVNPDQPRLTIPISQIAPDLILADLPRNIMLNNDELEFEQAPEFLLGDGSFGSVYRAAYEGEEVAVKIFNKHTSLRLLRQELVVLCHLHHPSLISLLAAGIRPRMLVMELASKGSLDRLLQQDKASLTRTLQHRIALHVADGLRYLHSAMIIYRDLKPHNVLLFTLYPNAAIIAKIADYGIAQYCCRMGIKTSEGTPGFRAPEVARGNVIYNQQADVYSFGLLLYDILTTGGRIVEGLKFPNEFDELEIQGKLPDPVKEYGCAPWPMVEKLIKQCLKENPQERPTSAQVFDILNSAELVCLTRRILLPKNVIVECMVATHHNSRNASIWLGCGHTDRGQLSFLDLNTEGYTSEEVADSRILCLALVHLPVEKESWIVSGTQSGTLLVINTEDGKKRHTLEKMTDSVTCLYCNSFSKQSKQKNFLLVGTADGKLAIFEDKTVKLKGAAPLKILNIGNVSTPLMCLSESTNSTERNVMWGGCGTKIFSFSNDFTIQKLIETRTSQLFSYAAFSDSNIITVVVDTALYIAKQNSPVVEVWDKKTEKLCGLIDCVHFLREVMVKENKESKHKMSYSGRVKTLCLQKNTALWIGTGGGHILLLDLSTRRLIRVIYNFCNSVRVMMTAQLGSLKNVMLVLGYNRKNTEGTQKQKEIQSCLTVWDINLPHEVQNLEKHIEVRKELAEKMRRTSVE"}, "[14]": {"target": "MAK (human) (UniProt P20794)", "sequence (P20794 whole entry, looked up)": "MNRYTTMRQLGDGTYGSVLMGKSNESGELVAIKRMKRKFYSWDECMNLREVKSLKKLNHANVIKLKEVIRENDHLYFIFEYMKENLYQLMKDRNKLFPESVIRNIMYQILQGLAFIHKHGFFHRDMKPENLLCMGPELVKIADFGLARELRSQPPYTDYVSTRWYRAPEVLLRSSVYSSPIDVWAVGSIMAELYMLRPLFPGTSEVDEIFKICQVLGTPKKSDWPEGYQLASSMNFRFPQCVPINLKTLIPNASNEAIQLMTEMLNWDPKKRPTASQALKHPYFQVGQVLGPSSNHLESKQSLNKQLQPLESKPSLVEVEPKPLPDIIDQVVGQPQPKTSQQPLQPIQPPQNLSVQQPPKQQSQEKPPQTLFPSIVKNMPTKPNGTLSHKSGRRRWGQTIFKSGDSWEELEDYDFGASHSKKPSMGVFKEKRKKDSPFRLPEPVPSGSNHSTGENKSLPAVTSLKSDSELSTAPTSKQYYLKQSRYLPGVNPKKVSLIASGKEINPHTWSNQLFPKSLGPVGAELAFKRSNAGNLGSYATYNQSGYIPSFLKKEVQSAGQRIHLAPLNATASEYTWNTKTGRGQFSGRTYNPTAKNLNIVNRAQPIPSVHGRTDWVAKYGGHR"}, "[15]": {"target": "MAP3K15 (human) (UniProt Q6ZN16)", "sequence (Q6ZN16 whole entry, looked up)": "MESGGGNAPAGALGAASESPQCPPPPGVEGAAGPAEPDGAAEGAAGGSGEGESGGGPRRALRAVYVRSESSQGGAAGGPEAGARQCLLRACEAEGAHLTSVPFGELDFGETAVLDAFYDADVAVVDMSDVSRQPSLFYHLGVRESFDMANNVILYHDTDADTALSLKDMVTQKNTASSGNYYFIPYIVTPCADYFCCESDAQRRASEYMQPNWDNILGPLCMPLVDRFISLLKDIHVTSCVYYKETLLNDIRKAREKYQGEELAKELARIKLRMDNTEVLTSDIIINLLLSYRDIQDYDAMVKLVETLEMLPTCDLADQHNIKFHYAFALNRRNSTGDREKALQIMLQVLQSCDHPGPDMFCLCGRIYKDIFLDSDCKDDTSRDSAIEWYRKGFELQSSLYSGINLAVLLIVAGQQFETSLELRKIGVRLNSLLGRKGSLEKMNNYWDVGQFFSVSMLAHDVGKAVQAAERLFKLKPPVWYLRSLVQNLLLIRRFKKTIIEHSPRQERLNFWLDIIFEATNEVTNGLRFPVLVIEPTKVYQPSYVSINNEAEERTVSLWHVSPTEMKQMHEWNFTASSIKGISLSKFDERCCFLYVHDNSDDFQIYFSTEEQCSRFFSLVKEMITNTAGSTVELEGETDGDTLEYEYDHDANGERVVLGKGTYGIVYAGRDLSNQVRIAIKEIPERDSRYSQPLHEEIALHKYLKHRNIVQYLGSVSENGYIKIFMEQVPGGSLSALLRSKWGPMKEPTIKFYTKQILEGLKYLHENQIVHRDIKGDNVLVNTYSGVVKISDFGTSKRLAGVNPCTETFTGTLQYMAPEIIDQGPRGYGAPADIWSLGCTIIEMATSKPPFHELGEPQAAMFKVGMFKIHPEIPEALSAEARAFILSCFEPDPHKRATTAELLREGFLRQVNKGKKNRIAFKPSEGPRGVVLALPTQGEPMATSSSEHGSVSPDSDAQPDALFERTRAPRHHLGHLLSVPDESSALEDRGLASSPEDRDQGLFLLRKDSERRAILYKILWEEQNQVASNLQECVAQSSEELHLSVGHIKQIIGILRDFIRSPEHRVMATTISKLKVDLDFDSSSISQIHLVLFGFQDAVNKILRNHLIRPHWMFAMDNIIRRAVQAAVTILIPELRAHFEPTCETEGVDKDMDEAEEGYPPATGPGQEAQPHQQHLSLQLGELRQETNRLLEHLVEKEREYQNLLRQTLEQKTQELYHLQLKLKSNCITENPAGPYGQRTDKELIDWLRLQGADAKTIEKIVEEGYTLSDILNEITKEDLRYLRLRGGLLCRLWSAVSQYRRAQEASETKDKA"}, "[16]": {"target": "MAP4K3 (human) (UniProt Q8IVH8)"}, "[17]": {"target": "MAPK1 (human) (UniProt P28482)"}, "[18]": {"target": "MAPK11 (human) (UniProt Q15759)"}, "[19]": {"target": "MATK (human) (UniProt P42679)"}, "[20]": {"test_system": "MET (human), P08581 [Y1235D]"}, "[21]": {"target": "NEK9 (human) (UniProt Q8TD19)"}, "[22]": {"target": "NUAK1 (human) (UniProt O60285)"}, "[23]": {"target": "NUAK2 (human) (UniProt Q9H093)"}, "[24]": {"target": "PDPK1 (human) (UniProt O15530)", "sequence (O15530 whole entry, looked up)": "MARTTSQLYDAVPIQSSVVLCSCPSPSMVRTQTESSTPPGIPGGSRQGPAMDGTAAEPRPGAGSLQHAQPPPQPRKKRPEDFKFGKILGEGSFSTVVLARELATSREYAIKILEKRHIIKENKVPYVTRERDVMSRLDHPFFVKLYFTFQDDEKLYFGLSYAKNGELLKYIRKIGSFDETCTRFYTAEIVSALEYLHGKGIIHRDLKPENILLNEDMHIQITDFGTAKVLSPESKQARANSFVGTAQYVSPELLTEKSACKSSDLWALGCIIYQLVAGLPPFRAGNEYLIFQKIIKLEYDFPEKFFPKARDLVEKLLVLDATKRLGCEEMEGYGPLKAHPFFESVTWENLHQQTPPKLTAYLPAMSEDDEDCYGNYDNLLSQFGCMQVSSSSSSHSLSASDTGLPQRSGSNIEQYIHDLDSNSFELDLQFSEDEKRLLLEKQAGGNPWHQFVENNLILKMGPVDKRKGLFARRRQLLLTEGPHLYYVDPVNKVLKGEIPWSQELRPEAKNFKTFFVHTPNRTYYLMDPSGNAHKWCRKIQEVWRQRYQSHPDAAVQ"}, "[25]": {"target": "PIK3C2G (human) (UniProt O75747)"}, "[26]": {"target": "PRKAA1 (human) (UniProt Q13131)"}, "[27]": {"target": "PRKAA2 (human) (UniProt P54646)"}, "[28]": {"target": "PRKACB (human) (UniProt P22694)"}, "[29]": {"target": "PRKCD (human) (UniProt Q05655)"}, "[30]": {"target": "PRKX (human) (UniProt P51817)"}, "[31]": {"target": "PTK2B (human) (UniProt Q14289)"}, "[32]": {"target": "RIOK1 (human) (UniProt Q9BRS2)"}, "[33]": {"target": "ROS1 (human) (UniProt P08922)"}, "[34]": {"target": "SRMS (human) (UniProt Q9H3Y6)"}, "[35]": {"target": "STK11 (human) (UniProt Q15831)"}, "[36]": {"target": "STK32B (human) (UniProt Q9NY57)"}, "[37]": {"target": "STK39 (human) (UniProt Q9UEW8)"}, "[38]": {"target": "TESK1 (human) (UniProt Q15569)"}, "[39]": {"target": "TLK1 (human) (UniProt Q9UKI8)"}, "[40]": {"target": "ULK1 (human) (UniProt O75385)"}, "[41]": {"target": "ULK2 (human) (UniProt Q8IYT8)"}, "[42]": {"target": "YES1 (human) (UniProt P07947)"}}, "data": [{"smiles": "CNC(=O)c1cc(Oc2ccc(NC(=O)Nc3ccc(Cl)c(C(F)(F)F)c3)cc2)ccn1", "values": [{"measurement": "per cent of control", "setting": "[1]", "value": 100, "unit": "%"}, {"measurement": "per cent of control", "setting": "[2]", "value": 90, "unit": "%"}, {"measurement": "per cent of control", "setting": "[3]", "value": 100, "unit": "%"}, {"measurement": "per cent of control", "setting": "[4]", "value": 29, "unit": "%"}, {"measurement": "per cent of control", "setting": "[5]", "value": 82, "unit": "%"}, {"measurement": "per cent of control", "setting": "[6]", "value": 11, "unit": "%"}, {"measurement": "per cent of control", "setting": "[7]", "value": 16, "unit": "%"}, {"measurement": "per cent of control", "setting": "[8]", "value": 100, "unit": "%"}, {"measurement": "per cent of control", "setting": "[9]", "value": 6.4, "unit": "%"}, {"measurement": "per cent of control", "setting": "[10]", "value": 41, "unit": "%"}, {"measurement": "per cent of control", "setting": "[11]", "value": 76, "unit": "%"}, {"measurement": "per cent of control", "setting": "[12]", "value": 0, "unit": "%"}, {"measurement": "per cent of control", "setting": "[13]", "value": 86, "unit": "%"}, {"measurement": "per cent of control", "setting": "[14]", "value": 38, "unit": "%"}, {"measurement": "per cent of control", "setting": "[15]", "value": 79, "unit": "%"}, {"measurement": "per cent of control", "setting": "[16]", "value": 48, "unit": "%"}, {"measurement": "per cent of control", "setting": "[17]", "value": 100, "unit": "%"}, {"measurement": "per cent of control", "setting": "[18]", "value": 0.05, "unit": "%"}, {"measurement": "per cent of control", "setting": "[19]", "value": 64, "unit": "%"}, {"measurement": "per cent of control", "setting": "[20]", "value": 60, "unit": "%"}, {"measurement": "per cent of control", "setting": "[21]", "value": 48, "unit": "%"}, {"measurement": "per cent of control", "setting": "[22]", "value": 74, "unit": "%"}, {"measurement": "per cent of control", "setting": "[23]", "value": 100, "unit": "%"}, {"measurement": "per cent of control", "setting": "[24]", "value": 94, "unit": "%"}, {"measurement": "per cent of control", "setting": "[25]", "value": 100, "unit": "%"}, {"measurement": "per cent of control", "setting": "[26]", "value": 32, "unit": "%"}, {"measurement": "per cent of control", "setting": "[27]", "value": 60, "unit": "%"}, {"measurement": "per cent of control", "setting": "[28]", "value": 100, "unit": "%"}, {"measurement": "per cent of control", "setting": "[29]", "value": 100, "unit": "%"}, {"measurement": "per cent of control", "setting": "[30]", "value": 98, "unit": "%"}, {"measurement": "per cent of control", "setting": "[31]", "value": 99, "unit": "%"}, {"measurement": "per cent of control", "setting": "[32]", "value": 100, "unit": "%"}, {"measurement": "per cent of control", "setting": "[33]", "value": 79, "unit": "%"}, {"measurement": "per cent of control", "setting": "[34]", "value": 96, "unit": "%"}, {"measurement": "per cent of control", "setting": "[35]", "value": 98, "unit": "%"}, {"measurement": "per cent of control", "setting": "[36]", "value": 100, "unit": "%"}, {"measurement": "per cent of control", "setting": "[37]", "value": 76, "unit": "%"}, {"measurement": "per cent of control", "setting": "[38]", "value": 72, "unit": "%"}, {"measurement": "per cent of control", "setting": "[39]", "value": 74, "unit": "%"}, {"measurement": "per cent of control", "setting": "[40]", "value": 89, "unit": "%"}, {"measurement": "per cent of control", "setting": "[41]", "value": 94, "unit": "%"}, {"measurement": "per cent of control", "setting": "[42]", "value": 41, "unit": "%"}]}, {"smiles": "CNC(=O)c1cc(Oc2ccc(NC(=O)Nc3ccc(Cl)c(C(F)(F)F)c3)cc2)cc[n+]1[O-]", "values": [{"measurement": "per cent of control", "setting": "[1]", "value": 100, "unit": "%"}, {"measurement": "per cent of control", "setting": "[2]", "value": 81, "unit": "%"}, {"measurement": "per cent of control", "setting": "[3]", "value": 94, "unit": "%"}, {"measurement": "per cent of control", "setting": "[4]", "value": 46, "unit": "%"}, {"measurement": "per cent of control", "setting": "[5]", "value": 70, "unit": "%"}, {"measurement": "per cent of control", "setting": "[6]", "value": 18, "unit": "%"}, {"measurement": "per cent of control", "setting": "[7]", "value": 15, "unit": "%"}, {"measurement": "per cent of control", "setting": "[8]", "value": 100, "unit": "%"}, {"measurement": "per cent of control", "setting": "[9]", "value": 8.9, "unit": "%"}, {"measurement": "per cent of control", "setting": "[10]", "value": 28, "unit": "%"}, {"measurement": "per cent of control", "setting": "[11]", "value": 22, "unit": "%"}, {"measurement": "per cent of control", "setting": "[12]", "value": 0, "unit": "%"}, {"measurement": "per cent of control", "setting": "[13]", "value": 80, "unit": "%"}, {"measurement": "per cent of control", "setting": "[14]", "value": 35, "unit": "%"}, {"measurement": "per cent of control", "setting": "[15]", "value": 80, "unit": "%"}, {"measurement": "per cent of control", "setting": "[16]", "value": 12, "unit": "%"}, {"measurement": "per cent of control", "setting": "[17]", "value": 100, "unit": "%"}, {"measurement": "per cent of control", "setting": "[18]", "value": 0, "unit": "%"}, {"measurement": "per cent of control", "setting": "[19]", "value": 62, "unit": "%"}, {"measurement": "per cent of control", "setting": "[20]", "value": 11, "unit": "%"}, {"measurement": "per cent of control", "setting": "[21]", "value": 35, "unit": "%"}, {"measurement": "per cent of control", "setting": "[22]", "value": 100, "unit": "%"}, {"measurement": "per cent of control", "setting": "[23]", "value": 85, "unit": "%"}, {"measurement": "per cent of control", "setting": "[24]", "value": 94, "unit": "%"}, {"measurement": "per cent of control", "setting": "[25]", "value": 100, "unit": "%"}, {"measurement": "per cent of control", "setting": "[26]", "value": 36, "unit": "%"}, {"measurement": "per cent of control", "setting": "[27]", "value": 49, "unit": "%"}, {"measurement": "per cent of control", "setting": "[28]", "value": 98, "unit": "%"}, {"measurement": "per cent of control", "setting": "[29]", "value": 100, "unit": "%"}, {"measurement": "per cent of control", "setting": "[30]", "value": 100, "unit": "%"}, {"measurement": "per cent of control", "setting": "[31]", "value": 91, "unit": "%"}, {"measurement": "per cent of control", "setting": "[32]", "value": 100, "unit": "%"}, {"measurement": "per cent of control", "setting": "[33]", "value": 73, "unit": "%"}, {"measurement": "per cent of control", "setting": "[34]", "value": 10, "unit": "%"}, {"measurement": "per cent of control", "setting": "[35]", "value": 100, "unit": "%"}, {"measurement": "per cent of control", "setting": "[36]", "value": 100, "unit": "%"}, {"measurement": "per cent of control", "setting": "[37]", "value": 87, "unit": "%"}, {"measurement": "per cent of control", "setting": "[38]", "value": 55, "unit": "%"}, {"measurement": "per cent of control", "setting": "[39]", "value": 60, "unit": "%"}, {"measurement": "per cent of control", "setting": "[40]", "value": 99, "unit": "%"}, {"measurement": "per cent of control", "setting": "[41]", "value": 75, "unit": "%"}, {"measurement": "per cent of control", "setting": "[42]", "value": 68, "unit": "%"}]}]}
